Test results as given in patent publication US20260022142A1, “MACROCYCLIC IMMUNOMODULATORS” (Bristol-Myers Squibb Company, priority 2022, published 2026).
Bridge positions count the residues as written; N and C are the ends. Square brackets hold non-standard residues; d marks the D form. Peptide text beside a SMILES is read from it. * marks the point of attachment. ξ: configuration not given here. Ala(morpholin-4-yl) = N[C@@H](CN1CCOCC1)C(=O)O; Phe(4-CONH2) = NC(=O)c1ccc(C[C@H](N)C(=O)O)cc1; Phe(4-COOH) = N[C@@H](Cc1ccc(C(=O)O)cc1)C(=O)O; Bip = N[C@@H](Cc1ccc(-c2ccccc2)cc1)C(=O)O; NH(CH2)14COOH = O=C(O)CCCCCCCCCCCCCCN*; Phe(3-Me) = Cc1cccc(C[C@H](N)C(=O)O)c1; Val(3-OH) = CC(C)(O)[C@H](N)C(=O)O; hArg = N=C(N)NCCCC[C@H](N)C(=O)O; Cha = N[C@@H](CC1CCCCC1)C(=O)O; Cit = NC(=O)NCCC[C@H](N)C(=O)O; Thr(3ξ) = CC(O)[C@H](N)C(=O)O; 12Ado = NCCCCCCCCCCCC(=O)O; Carboxymethyl = O=C(O)C*; Orn = NCCC[C@H](N)C(=O)O; Aun = NCCCCCCCCCCC(=O)O; Dab = NCC[C@H](N)C(=O)O; Dap = NC[C@H](N)C(=O)O; AEEA = NCCOCCOCC(=O)O; Ac3c = NC1(C(=O)O)CC1

biological target: T1, PD-1/PD-L1 interaction (PE-labeled human PD-L1-Ig binding to Jurkat cell line over-expressing human PD-1) (Homo sapiens, UniProt Q15116); assay: Jurkat-PD-1 Cell Binding High-Content Screening Assay (CBA); type: cell-based; details: Jurkat cell line over-expressing human PD-1; PE-labeled PD-L1-Ig 20 nM final; read-out: Jurkat hPD1-PDL1 IC50
T1 construct: expressed in transfected cells; host or cells: Jurkat
Procedure, shortened: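 Jurkat cells stably over-expressing human PD-1 were seeded in DMEM with 10% fetal calf serum and pre-incubated with compound for 2 h at 37° C. PE-labeled human PD-L1-Ig was then added at 20 nM final for 1 hour, after which cells were fixed with paraformaldehyde, Hoechst-stained and imaged by high-content microscopy.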

T1 sequence (Q15116 25-288): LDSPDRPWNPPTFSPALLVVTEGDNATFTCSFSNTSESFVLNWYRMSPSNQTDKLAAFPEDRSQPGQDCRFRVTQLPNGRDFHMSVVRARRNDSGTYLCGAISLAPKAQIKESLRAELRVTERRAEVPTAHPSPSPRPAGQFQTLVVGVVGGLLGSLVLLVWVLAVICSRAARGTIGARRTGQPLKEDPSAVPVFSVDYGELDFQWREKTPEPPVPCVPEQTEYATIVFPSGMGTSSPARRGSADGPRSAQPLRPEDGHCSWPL

SMILES	IC50
CC(C)[C@@H]1NC(=O)[C@H](CC2CCCCC2)NC(=O)[C@H](CCN)NC(=O)[C@@H](C)NC(=O)[C@H](CCN)NC(=O)[C@H](C(C)C)NC(=O)[C@H](Cc2ccc(-c3ccccc3)cc2)NC(=O)[C@H](C(C)C)NC(=O)[C@H](Cc2c[nH]c3ccccc23)NC(=O)[C@H](CC(=O)O)NC(=O)[C@H](Cc2ccc(OCC(=O)O)cc2)NC(=O)[C@H](CCCCNC(=N)N)NC(=O)CSC[C@@H](C(=O)N[C@@H](CCN)C(=O)NCCOCCOCC(=O)NCCCCCCCCCCC(=O)O)NC(=O)[C@H](CCCN)NC1=O [Compound 3279] ({CH2CO}-[hArg]Y(Carboxymethyl)DWV[Bip]V[Dab][dA][Dab][Cha]V[Orn]C[Dab][AEEA][Aun]-OH; thioether N-14)	46.7 nM
Cc1cccc(C[C@@H]2NC(=O)[C@H](CC(=O)O)NC(=O)[C@H](Cc3ccc(OCC(=O)O)cc3)NC(=O)[C@H](CCN)NC(=O)CSC[C@@H](C(=O)N[C@@H](CCN)C(=O)NCCOCCOCC(=O)NCCOCCOCC(=O)NCCOCCOCC(=O)NCCCCCCCCCCCCCCC(=O)O)NC(=O)[C@H](Cc3c[nH]cn3)NC(=O)[C@H](C(C)(C)O)NC(=O)[C@H](CC3CCCCC3)NC(=O)[C@H](CCN)NC(=O)[C@@H](CC(C)C)NC(=O)[C@H](CCCN)NC(=O)[C@H](Cc3ccc(C(=O)O)cc3)NC(=O)[C@H](Cc3ccc(-c4ccccc4)cc3)NC(=O)[C@H](Cc3ccc(C(N)=O)cc3)NC2=O)c1 [Compound 3761] ({CH2CO}-[Dab]Y(Carboxymethyl)D[Phe(3-Me)][Phe(4-CONH2)][Bip][Phe(4-COOH)][Orn][dL][Dab][Cha][Val(3-OH)]HC[Dab][AEEA][AEEA][AEEA]-{NH(CH2)14COOH}; thioether N-14)	36.8 nM
Cc1cccc(C[C@@H]2NC(=O)[C@H](CC(=O)O)NC(=O)[C@H](Cc3ccc(OCC(=O)O)cc3)NC(=O)[C@H](CN3CCOCC3)NC(=O)CSC[C@@H](C(=O)N[C@@H](CCN)C(=O)NCCCCCCCCCCC(=O)O)NC(=O)[C@H]([C@@H](C)O)NC(=O)[C@H](C(C)C)NC(=O)[C@H](CC3CCCCC3)NC(=O)[C@H](CCN)NC(=O)[C@@H](CC(C)C)NC(=O)[C@H](CCCN)NC(=O)[C@H](CCCNC(N)=O)NC(=O)[C@H](Cc3ccc(-c4ccccc4)cc3)NC(=O)[C@H](C(C)C)NC2=O)c1 [Compound 2038] ({CH2CO}-[Ala(morpholin-4-yl)]Y(Carboxymethyl)D[Phe(3-Me)]V[Bip][Cit][Orn][dL][Dab][Cha]VTC[Dab][Aun]-OH; thioether N-14)	38.7 nM
Cc1cccc(C[C@@H]2NC(=O)[C@H](CC(=O)O)NC(=O)[C@H](Cc3ccc(OCC(=O)O)cc3)NC(=O)[C@H](CCN)NC(=O)CSC[C@@H](C(=O)N[C@@H](CCN)C(=O)NCCOCCOCC(=O)NCCCCCCCCCCC(=O)O)NC(=O)[C@H](CCC(=O)O)NC(=O)[C@H](C(C)O)NC(=O)[C@H](CC3CCCCC3)NC(=O)[C@H](CCN)NC(=O)[C@@H](CC(C)C)NC(=O)[C@H](CCCN)NC(=O)[C@H](Cc3ccc(OCC(=O)O)cc3)NC(=O)[C@H](Cc3ccc(-c4ccccc4)cc3)NC(=O)[C@H](Cc3ccc(OCC(=O)O)cc3)NC2=O)c1 (stereo partly drawn) [Compound 3797] ({CH2CO}-[Dab]Y(Carboxymethyl)D[Phe(3-Me)]Y(Carboxymethyl)[Bip]Y(Carboxymethyl)[Orn][dL][Dab][Cha][Thr(3ξ)]EC[Dab][AEEA][Aun]-OH; thioether N-14)	2.1 nM
CC(C)C[C@H]1NC(=O)[C@H](CCCN)NC(=O)[C@H](C(C)C)NC(=O)[C@H](Cc2ccc(-c3ccccc3)cc2)NC(=O)[C@H](C(C)C)NC(=O)[C@H](Cc2c[nH]c3ccccc23)NC(=O)[C@H](CC(=O)O)NC(=O)[C@H](Cc2ccc(OCC(=O)O)cc2)NC(=O)[C@H](CCCCNC(=N)N)NC(=O)CSC[C@@H](C(=O)NCC(=O)NCCOCCOCC(=O)N[C@@H](CCCN)C(=O)NCCCCCCCCCCC(=O)O)NC(=O)[C@H](CCN)NC(=O)[C@H](C(C)C)NC(=O)[C@H](CC2CCCCC2)NC(=O)[C@H](CCN)NC1=O [Compound 3197] ({CH2CO}-[hArg]Y(Carboxymethyl)DWV[Bip]V[Orn][dL][Dab][Cha]V[Dab]CG[AEEA][Orn][Aun]-OH; thioether N-14)	7.7 nM

Further compounds by falling IC50, results first:

IC50	SMILES
13.4 nM	CC(=O)NCCCC[C@@H]1NC(=O)[C@H](Cc2ccc(-c3ccccc3)cc2)NC(=O)[C@H](Cc2ccc(O)cc2)NC(=O)[C@H](Cc2cccc(C)c2)NC(=O)[C@H](CC(=O)O)NC(=O)[C@H](Cc2ccc(OCC(=O)O)cc2)NC(=O)[C@H](CN)NC(=O)CSC[C@@H](C(=O)N[C@@H](CCN)C(=O)N[C@@H](CO)C(=O)NCCCCCCCCCCCC(=O)O)NC(=O)[C@H](CCCN)NC(=O)[C@H](C(C)C)NC(=O)[C@H](CC2CCCCC2)NC(=O)[C@H](CCN)NC(=O)[C@@H](CC(C)C)NC(=O)[C@H](CCCN)NC1=O [Compound 3619] ({CH2CO}-[Dap]Y(Carboxymethyl)D[Phe(3-Me)]Y[Bip]K(Ac)[Orn][dL][Dab][Cha]V[Orn]C[Dab]S[12Ado]-OH; thioether N-14)
12.9 nM	Cc1cccc(C[C@@H]2NC(=O)[C@H](CC(=O)O)NC(=O)[C@H](Cc3ccc(OCC(=O)O)cc3)NC(=O)[C@H](CCCNC(=N)N)NC(=O)CSC[C@@H](C(=O)NC3(C(=O)NCCCCCCCCCCC(=O)O)CC3)NC(=O)[C@H]([C@@H](C)O)NC(=O)[C@H](C(C)C)NC(=O)[C@H](CC3CCCCC3)NC(=O)[C@H](CCN)NC(=O)[C@@H](CC(C)C)NC(=O)[C@H](CCCNC(N)=O)NC(=O)[C@H](Cc3ccc(OCC(=O)O)cc3)NC(=O)[C@H](Cc3ccc(-c4ccccc4)cc3)NC(=O)[C@H](Cc3ccc(OCC(=O)O)cc3)NC2=O)c1 [Compound 2162] ({CH2CO}-RY(Carboxymethyl)D[Phe(3-Me)]Y(Carboxymethyl)[Bip]Y(Carboxymethyl)[Cit][dL][Dab][Cha]VTC[Ac3c][Aun]-OH; thioether N-14)
10.3 nM	Cc1cccc(C[C@@H]2NC(=O)[C@H](CC(=O)O)NC(=O)[C@H](Cc3ccc(OCC(=O)O)cc3)NC(=O)[C@H](CCCNC(=N)N)NC(=O)CSC[C@@H](C(=O)N[C@@H](CCN)C(=O)NCCCCCCCCCCC(=O)O)NC(=O)[C@H](CCC(N)=O)NC(=O)[C@H](CO)NC(=O)[C@H](CC3CCCCC3)NC(=O)[C@H](CCN)NC(=O)[C@@H](CC(C)C)NC(=O)[C@H](CCCN)NC(=O)[C@H](Cc3ccc(OCC(=O)O)cc3)NC(=O)[C@H](Cc3ccc(-c4ccccc4)cc3)NC(=O)[C@H](Cc3ccc(OCC(=O)O)cc3)NC2=O)c1 [Compound 3516] ({CH2CO}-RY(Carboxymethyl)D[Phe(3-Me)]Y(Carboxymethyl)[Bip]Y(Carboxymethyl)[Orn][dL][Dab][Cha]SQC[Dab][Aun]-OH; thioether N-14)
2.6 nM	Cc1cccc(C[C@@H]2NC(=O)[C@H](CC(=O)O)NC(=O)[C@H](Cc3ccc(OCC(=O)O)cc3)NC(=O)[C@H](CCCCNC(=N)N)NC(=O)CSC[C@@H](C(=O)N[C@@H](CCN)C(=O)NCCCCCCCCCCC(=O)O)NC(=O)[C@H](CO)NC(=O)[C@H](C(C)(C)O)NC(=O)[C@H](CC3CCCCC3)NC(=O)[C@H](CCN)NC(=O)[C@@H](CC(C)C)NC(=O)[C@H](CCCN)NC(=O)[C@H](Cc3ccc(OCC(=O)O)cc3)NC(=O)[C@H](Cc3ccc(-c4ccccc4)cc3)NC(=O)[C@H](Cc3ccc(OCC(=O)O)cc3)NC2=O)c1 [Compound 2234] ({CH2CO}-[hArg]Y(Carboxymethyl)D[Phe(3-Me)]Y(Carboxymethyl)[Bip]Y(Carboxymethyl)[Orn][dL][Dab][Cha][Val(3-OH)]SC[Dab][Aun]-OH; thioether N-14)
